{"source": "patent US20220170911A1", "about": "“CELL CONSTRUCT AND CELL CONSTRUCT PRODUCTION METHOD” (priority 2019, published 2022)", "assay_type_in_all_cases": "cell-based, human", "key": {"[1]": {"system": "tissue product including no vascular endothelial cell", "test": "Evaluation of glucose uptake (NBD-modified glucose fluorescence) with uptake inhibitor and promoter", "conditions": "125 μM apigenin and/or 10 μg/mL insulin in DMEM with 0.1 mg/mL NBD-modified glucose; day 7 tissue product; 20-135 minutes; control medium defined as 100%; FIG. 16/17(a)", "experimental": "A cell structure provided with a vascular network was produced with the same procedure as in Test Example 2, except that 6500 cells of mature adipocytes, 5500 cells of adipose stem cells, 2750 cells of vascular endothelial cells, 0.025 mg of the defibered collagen component (sCMF), 0.015 mg of fibrinogen, and 0.007 U of thrombin were used per tissue. The materials were prepared for 96 wells all at once to afford a gel, which was seeded on each well of a 96-well plate. […] The cell structures were incubated, and fluorescence measurement was carried out after 10 minutes, 30 minutes, 60 minutes, 120 minutes, and 150 minutes. Before the measurement at each timing, the culture medium for a cell structure to be subjected to measurement was substituted with 300 μL of PBS buffer, and the fluorescence was measured with a plate reader (Synergy HTX, manufactured by BioTek Instruments, Inc.) to determine the cumulative value of fluorescence intensity in the image. […] The tissue product was incubated, and fluorescence measurement was carried out after 20 minutes, 45 minutes, 70 minutes, 90 minutes, and 135 minutes in the same manner as in Test Example 10. […]"}, "[2]": {"system": "tissue product including no vascular endothelial cell", "test": "Evaluation of release of glucose and fatty acid taken up, with release promoter", "conditions": "2 mM isoproterenol, then 30 minutes incubation, day 14 tissue product", "experimental": "A tissue product was produced in the same manner as for the cell structure in Test Example 10, except that no vascular endothelial cell was included, and evaluation was carried out with the tissue product on day 14 after the beginning of formation thereof.\nIn order to measure the amount of release of glucose once taken up, incubation was performed on DMEM culture medium supplemented with 0.1 mg/mL NBD-modified glucose as in Test Example 10 for 60 minutes, and then the culture medium was substituted again with 300 μL of DMEM culture medium supplemented with NBD-modified glucose, or with 300 μL of DMEM culture medium supplemented with 2 mM isoproterenol and NBD-modified glucose. Thereafter, incubation was performed for 30 minutes to allow glucose to be released from the cellular tissue, and fluorescence measurement was carried out. […]\nThe number of samples for each treatment was 5 […], fluorescence intensity for the tissue product with the culture medium containing no isoproterenol was defined as 100%, and what % of the amount of uptake was released was determined by comparing with fluorescence intensity for the tissue product with the culture medium containing isoproterenol. […]"}, "[3]": {"system": "tissue product including no vascular endothelial cell", "test": "Evaluation of fatty acid uptake (BODIPY-modified fatty acid fluorescence) with uptake promoter", "conditions": "10 μg/mL insulin in DMEM with 4 μM BODIPY-modified fatty acid; day 7 tissue product; 5, 30, 60 minutes; control without insulin defined as 100%; FIG. 17(b)", "experimental": "A tissue product including no vascular endothelial cell was produced in the same manner as in Test Example 10, and evaluation was carried out with the tissue product on day 7 after the beginning of formation thereof sCMF produced by using a mixture of a sponge fragment of porcine skin-derived collagen I and a sponge fragment of porcine skin-derived collagen III was used.\nA tissue product was incubated in the same manner as in Test Example 10, except that, in place of NBD-modified glucose in Test Example 10, 4 μM BODIPY-modified fatty acid (Invitrogen (R) BODIPY (R) 500/510 Cl, C12 (4,4-Difluoro-5-Methyl-4-Bora-3a,4a-Diaza-s-Indacene-3-Dodecanoi c Acid), Thermo Fisher Scientific) was added to DMEM culture medium, and fluorescence measurement was carried out after 5 minute, 30 minutes, and 60 minutes. Further, 10 μg/mL insulin was added to the DMEM culture medium containing 4 μM BODIPY-modified fatty acid, and fluorescence measurement was carried out in the same manner.\nThe number of samples for each treatment was 5 (n=5), and fatty acid uptake in the same control culture medium as in Test Example 10, which contained no insulin, was defined as 100%."}, "[4]": {"system": "cell structure including vascular endothelial cells and tissue product including no vascular endothelial cell", "test": "Evaluation of effect of uptake inhibitor for fatty acid (BODIPY-modified fatty acid fluorescence)", "conditions": "100 ng/mL TNFα in DMEM with 4 μM BODIPY-modified fatty acid; day 14; 0, 5, 30, 60 minutes; with and without vascular endothelial cells; control without TNFα defined as 100%; FIG. 18", "experimental": "A cell structure including vascular endothelial cells and a tissue product including no vascular endothelial cell were produced in the same manner as in Test Example 10, and evaluation was carried out with the cell structure and tissue product on day 14 after the beginning of formation thereof sCMF produced by using a sponge fragment of porcine skin-derived collagen I was used.\nInto DMEM culture medium containing 4 μM BODIPY-modified fatty acid in place of NBD-modified glucose in (Evaluation of Glucose Uptake) of Test Example 10, 100 ng/mL TNFα as an uptake inhibitor for fatty acid was introduced. The cell structure including vascular endothelial cells and the tissue product including no vascular endothelial cell were each incubated, and fluorescence measurement was carried out after 0 minutes, 5 minutes, 30 minutes, and 60 minutes in the same manner as in Test Example 10. The number of samples for each treatment was 5 (n=5), and fatty acid uptake in the same control culture medium as in Test Example 10, which contained no TNFα, was defined as 100%."}}, "data": [{"molecule": "O=c1cc(-c2ccc(O)cc2)oc2cc(O)cc(O)c12", "note": "[apigenin]", "values": [{"measurement": "amount of uptake of glucose", "setting": "[1]", "value": "reduced"}]}, {"molecule": "CC(C)NCC(O)c1ccc(O)c(O)c1", "note": "(stereo not drawn) [isoproterenol]", "values": [{"measurement": "release of fatty acid taken up", "setting": "[2]; 60 minutes uptake of BODIPY-modified fatty acid, FIG. 19(b)", "value": "promoted"}, {"measurement": "release of glucose taken up", "setting": "[2]; 60 minutes uptake of NBD-modified glucose, FIG. 19(a)", "value": "promoted"}]}, {"molecule": "Insulin from bovine pancreas", "values": [{"measurement": "amount of uptake of glucose", "setting": "[1]", "value": "increased"}, {"measurement": "amount of fatty acid uptake", "setting": "[3]", "value": "promoted"}]}, {"molecule": "TNFα", "values": [{"measurement": "amount of uptake of fatty acid", "setting": "[4]", "value": "reduced"}]}]}
